Assay results from US11786513B2, “Compositions comprising berberine” (INDENA S.P.A., priority 2018, dated 2023).

Key:
[1] = Solubility test in simulated biological fluids (FaSSGF), UPLC; type: physicochemical; details: Fasted-State Simulated Gastric Fluid (FaSSGF), fassgf or other biorelevant, thermodynamic from solid, pH 1.6, samples containing equal amounts of BBR
Method: The solubility test was conducted by comparing samples containing equal amounts of BBR. […] The analysis was conducted by the UPLC (Ultra High Performance Liquid Chromatography) method described below: ANALYSIS CONDITIONS: Flow rate: 0.4 ml/minute; Detection: 348 nm. SAMPLE SOLUTION: 30 mg in 200 ml (Chromatogram of a typical sample of ˜0.15 mg/ml, in FIG. 1). STANDARD SOLUTION: 10 mg of pure reference BBR in 200 ml of methanol (Standard solution ˜0.05 mg/ml, typical chromatogram in FIG. 2). The solubility test was conducted using Fasted-State Simulated Gastric Fluid (FaSSGF), prepared as reported below, as solvent. 1) Preparation of an NaCl/HCl solution for FaSSGF (1 litre): 2 g of NaCl was dissolved in […] of purified water, the pH was adjusted to 1.6 with HCl, and the mixture was made up to volume with purified water (1 litre). 2) 0.06 g of powder* (FaSSGF—Biorelevant media) was added to about 500 ml of the NaCl/HCl solution at room temperature and made up to volume (1 l) with the NaCl/HCl solution to obtain a clear, ready-for-use liquid. *Final sodium taurocholate 0.08 mM, final lecithin 0.02 mM

[2] = oral administration; cited from earlier work

| solubility [1] | Structure (SMILES) | fraction which reaches the systemic circulation [2] | oral absorption [2] |
| --- | --- | --- | --- |
| 0.113 mg/mL | COc1ccc2cc3[n+](cc2c1OC)CCc1cc2c(cc1-3)OCO2 [Reference 1, berberine] | – | – |
| – | COc1ccc2cc3[n+](cc2c1OC)CCc1cc2c(cc1-3)OCO2 [BBR, Berberine] | 0.36% | ≤ 0.5 % of the administered dose |
